Results: the supplement of paper PMC10307832

Key:
Experiment in all cases: relative viability (nuclei count vs DMSO), 5 days (fraction); higher = more cells survive
IU1-47 + Decitabine = compound: CC1=CC(=C(N1C2=CC=C(C=C2)Cl)C)C(=O)CN3CCCCC3 [IU1-47] + Nc1ncn([C@H]2C[C@H](O)[C@@H](CO)O2)c(=O)n1 [Decitabine] (partner 2 µM)
In short: (§1)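 One day after seeding in 1536-well plates, lung cancer cell lines were dosed by pin tool. Dosing was either single-drug or a fixed anchor-drug dose plus five library-drug doses (not always all listed) in √10 steps. After 5 days, nuclei were stained in one fix-and-stain step and counted on 4× images, and relative viability is the nuclei count of treated wells over that of vehicle wells, given as the median of duplicate plates.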

FG-4592 + OSI-027 = compound: Cc1nc(C(=O)NCC(=O)O)c(O)c2ccc(Oc3ccccc3)cc12 [FG-4592] + COc1cccc2cc(-c3nc([C@H]4CC[C@H](C(=O)O)CC4)n4ncnc(N)c34)[nH]c12 [OSI-027] (partner 0.5 µM)
In short: as §1

IU1-47 + Crizotinib = compound: CC1=CC(=C(N1C2=CC=C(C=C2)Cl)C)C(=O)CN3CCCCC3 [IU1-47] + C[C@@H](Oc1cc(-c2cnn(C3CCNCC3)c2)cnc1N)c1c(Cl)ccc(F)c1Cl [Crizotinib] (partner 1 µM)
In short: as §1

IU1-47 + OSI-027 = compound: CC1=CC(=C(N1C2=CC=C(C=C2)Cl)C)C(=O)CN3CCCCC3 [IU1-47] + COc1cccc2cc(-c3nc([C@H]4CC[C@H](C(=O)O)CC4)n4ncnc(N)c34)[nH]c12 [OSI-027] (partner 0.5 µM)
In short: as §1

Cell Line	relative viability (IU1-47 + Decitabine; first compound 0.08 µM)	relative viability (IU1-47 + Decitabine; first compound 0.253 µM)	relative viability (IU1-47 + Decitabine; first compound 0.8 µM)	relative viability (IU1-47 + Decitabine; first compound 2.53 µM)	relative viability (IU1-47 + Decitabine; first compound 8 µM)	relative viability (FG-4592 + OSI-027; first compound 0.08 µM)	relative viability (FG-4592 + OSI-027; first compound 0.253 µM)	relative viability (FG-4592 + OSI-027; first compound 0.8 µM)	relative viability (FG-4592 + OSI-027; first compound 2.53 µM)	relative viability (FG-4592 + OSI-027; first compound 8 µM)	relative viability (IU1-47 + Crizotinib; first compound 0.08 µM)	relative viability (IU1-47 + Crizotinib; first compound 0.253 µM)	relative viability (IU1-47 + Crizotinib; first compound 0.8 µM)	relative viability (IU1-47 + Crizotinib; first compound 2.53 µM)	relative viability (IU1-47 + Crizotinib; first compound 8 µM)	relative viability (IU1-47 + OSI-027; first compound 0.08 µM)	relative viability (IU1-47 + OSI-027; first compound 0.253 µM)	relative viability (IU1-47 + OSI-027; first compound 0.8 µM)	relative viability (IU1-47 + OSI-027; first compound 2.53 µM)	relative viability (IU1-47 + OSI-027; first compound 8 µM)
NCI-H460	0.536	0.494	0.563	0.51	0.579	0.757	0.641	0.721	0.554	0.614	0.955	1.1	1.05	0.861	1.46	0.795	0.737	0.835	0.822	0.505
NCI-H661	0.531	0.575	0.596	0.556	0.503	0.712	0.688	0.688	0.763	0.668	1.21	0.975	0.981	1.06	1.12	0.81	0.753	0.63	0.799	0.647
HCC-15	0.619	0.586	0.63	0.552	0.461	0.626	0.626	0.674	0.614	0.701	0.949	0.879	0.908	0.825	0.704	0.709	0.722	0.685	0.388	0.616
ABC-1	1.23	1.32	0.922	–	1.19	0.548	0.482	0.47	0.501	0.4	1.12	1.13	0.796	–	0.8	0.462	0.504	0.43	–	0.379
LCLC-103H	0.793	0.731	0.724	0.725	0.751	0.445	0.45	0.455	0.421	0.373	1.15	1.06	1.06	1.05	1.09	0.508	0.492	0.472	0.484	0.416
NCI-H441	0.254	0.257	0.212	0.254	0.234	0.589	0.537	0.621	0.465	0.563	0.778	0.887	0.813	0.889	0.775	0.74	0.724	0.572	0.535	0.676
EPLC-272H	0.362	0.38	0.4	–	0.34	0.348	0.206	0.285	0.29	0.232	0.957	0.918	0.862	–	0.984	0.326	0.325	0.253	–	0.259
